Experimental data reported in patent US10238670B2, “9-aminomethyl minocycline compounds and methods of use thereof in urinary tract infection (UTI) treatment” (Paratek Pharmaceuticals, Inc., priority 2016, dated 2019).

Assays:
Phase 1 studies, safety = assay type: in vivo, human
Procedure: In the Phase 1 studies, 536 subjects were exposed to Compound 1 IV or oral formulations. Single IV doses up to 600 mg and single oral doses up to 600 mg have been investigated. Multiple IV doses of 100 mg once daily and 200 mg once daily for up to 14 and 7 consecutive days, respectively, have been investigated.

[1] = Phase 1b study, investigator's assessment of clinical response (EOT, PTE); assay type: in vivo, human
Procedure: b) Investigator's Assessment of Clinical Response Investigator's Assessment of Clinical Response at EOT
The EOT visit was conducted on Day 6. This evaluation was also conducted for any prematurely withdrawn subject. The following assessments were performed at the EOT visit: subject assessment of UTI signs and symptoms severity, urine culture and leukocyte esterase dipstick test or microscopic examination, physical examination, vital signs, 12-lead ECG, hematology and serum chemistry, serum pregnancy test (all subjects) and investigator's assessment of clinical response. Subjects, who discontinued study treatment before completing the study, and those who prematurely withdrew from the study for any reason, were scheduled for a visit as soon as possible, at which time all of the assessments listed for the EOT visit were performed.
It was determined whether the subject met the criteria of 1 of the following clinical outcomes: • Clinical Success: Resolution of signs and symptoms at the EOT visit and no use of additional antimicrobial therapy. • Clinical Failure: No apparent response to therapy, persistence of signs and symptoms of infection at the EOT visit, or use of additional antimicrobial therapy for the current infection. • Indeterminate: EOT visit not completed. Investigator's Assessment of Clinical Response at PTE
The PTE visit was conducted 5 to 9 days after the subject's last day of therapy. This evaluation was also conducted for any prematurely withdrawn subject. The following assessments were performed at the PTE visit: urine culture and leukocyte esterase dipstick test or microscopic examination, physical examination, vital signs, hematology, serum chemistry, serum pregnancy test (all subjects), and investigator's assessment of clinical response.
It was determined whether the subject met the criteria of 1 of the following clinical outcomes: • Clinical Success: Resolution of signs and symptoms at the PTE visit and no use of additional antimicrobial therapy. • Clinical Failure: No apparent response to therapy, persistence of signs and symptoms of infection, or reappearance of signs and symptoms at or before the PTE visit, or use of additional antimicrobial therapy for the current infection. • Indeterminate: PTE visit not completed.
Investigator's assessment of clinical response at the EOT and PTE visits with outcomes of Clinical Success, Clinical Failure or Indeterminate as defined above. Subjects who were a clinical failure at an earlier time point were considered a clinical failure at subsequent time points. The number and percentage of subjects with an Investigator's assessment of success, failure and indeterminate were presented for EOT and PTE visits by treatment group.

E. coli FQS = test: In vitro MIC, 2010 surveillance isolates; assay type: cell-based, Escherichia coli; conditions: N=2906
K. pneumoniae FQS = test: In vitro MIC, 2010 surveillance isolates; assay type: cell-based, Klebsiella pneumoniae; conditions: N=1561
P. mirabilis = test: In vitro MIC, 2010 surveillance isolates; assay type: cell-based; conditions: N=384
[2] = tested on: E. coli isolates, including ESBL+ and quinolone resistance phenotypes; test: In vitro MIC, 2010 surveillance study of 4171 E. coli isolates; assay type: cell-based
[3] = tested on: E. coli (ATCC 25922) biofilm; test: MBEC assay, activity against established 24 hour biofilm; assay type: cell-based, Escherichia coli; conditions: 24 hours challenge
Procedure: The MBEC™ assay (formerly the Calgary biofilm device; Innovotech Inc., Canada) is a well-established high throughput assay for assessment of anti-biofilm activity of test agents in a 96-well format. Within this assay, the biofilm is formed on the plastic pegs of the plate lid. After inoculated media is introduced to the wells of the 96-well plate, the plate is placed in a shaking incubator to generate the necessary shear force for biofilm growth on the pegs. Following a suitable incubation time, the individual biofilms can be treated with varying concentrations of test agents (challenge plate). After the desired treatment time, the remaining biofilm-associated bacteria are retrieved from the pegs through sonication (recovery plate). Serial dilution and/or plating of the recovered bacterial suspension allow for the quantification of test agents' efficacy against pre-formed biofilms. Additionally, readout of the challenge plate from the biofilm treatment can be used to determine MIC values of test agents. The absence of growth in the recovery plate indicates complete biofilm eradication and the lowest concentration of a test agent that achieves this is designated as the minimum biofilm eradication concentration (MBEC). The MBEC™ assay is also amenable to assess potential synergistic effects of combination treatments, as well as efficacy of test agents in inhibiting or inducing biofilm formation. The MBEC™ plates were inoculated with 10^7 CFU/mL of stationary phase E. coli (ATCC 25922) and incubated for 24 hours to allow formation of a robust biofilm. The individual biofilms formed on the pegs were challenged with varying concentrations of antibiotics for 24 hours, followed by recovery of the surviving bacteria. Bacterial enumeration was performed using a Most Probable Number (MPN) assay (Sutton, Journal of Validation Technology 16 (3): 35-38, 2010, incorporated herein by reference) in a 96-well format.

[4] = complicated skin and skin structure infection; cited from earlier work

## CN(C)c1cc(CNCC(C)(C)C)c(O)c2c1C[C@H]1C[C@H]3[C@H](N(C)C)C(O)=C(C(N)=O)C(=O)[C@@]3(O)C(O)=C1C2=O [Compound 1, 9-[(2,2-dimethyl-propylamino)-methyl]-minocycline]
Phase 1 studies, safety; all Phase 1 studies, subjects who received multiple doses
  discontinuations due to drug-related adverse events: no discontinuations due to drug-related adverse events
Phase 1 studies, safety; multiple p.o. doses of 200 mg and 300 mg once daily for up to 10 consecutive days
  serious adverse events: without any serious adverse events
[1]; EOT, IV_PO300
  Reason for Clinical Failure: Persistence of signs and symptoms of infection at or before current visit: 0 (0.0) n (%)
[1]; EOT, IV_PO300 (N = 11)
  Clinical Failure: 0 (0.0) n (%)
  Clinical Success: 10 (90.9) n (%)
  Indeterminate: 1 (9.1) n (%)
[1]; EOT, PO300
  Reason for Clinical Failure: Persistence of signs and symptoms of infection at or before current visit: 0 (0.0) n (%)
[1]; EOT, PO300 (N = 10)
  Clinical Failure: 0 (0.0) n (%)
  Clinical Success: 10 (100.0) n (%)
  Indeterminate: 0 (0.0) n (%)
[1]; EOT, PO450
  Reason for Clinical Failure: Persistence of signs and symptoms of infection at or before current visit: 1 (100.0) n (%)
[1]; EOT, PO450 (N = 10)
  Clinical Failure: 1 (10.0) n (%)
  Clinical Success: 9 (90.0) n (%)
  Indeterminate: 0 (0.0) n (%)
[1]; PTE, IV_PO300
  Reason for Clinical Failure: Persistence of signs and symptoms of infection at or before current visit: 0 (0.0) n (%)
  Reason for Clinical Failure: Use of additional systemic antimicrobial therapy for the current infection: 0 (0.0) n (%)
[1]; PTE, IV_PO300 (N = 11)
  Clinical Failure: 0 (0.0) n (%)
  Clinical Success: 11 (100.0) n (%)
  Indeterminate: 0 (0.0) n (%)
[1]; PTE, PO300
  Reason for Clinical Failure: Persistence of signs and symptoms of infection at or before current visit: 2 (100.0) n (%)
  Reason for Clinical Failure: Use of additional systemic antimicrobial therapy for the current infection: 0 (0.0) n (%)
[1]; PTE, PO300 (N = 10)
  Clinical Failure: 2 (20.0) n (%)
  Clinical Success: 7 (70.0) n (%)
  Indeterminate: 0 (0.0) n (%)
[1]; PTE, PO450
  Reason for Clinical Failure: Persistence of signs and symptoms of infection at or before current visit: 1 (50.0) n (%)
  Reason for Clinical Failure: Use of additional systemic antimicrobial therapy for the current infection: 1 (50.0) n (%)
[1]; PTE, PO450 (N = 10)
  Clinical Failure: 2 (20.0) n (%)
  Clinical Success: 8 (80.0) n (%)
  Indeterminate: 0 (0.0) n (%)
E. coli FQS; MIC 1 μg/ml
  Cumulative % Inhibition at MIC: 87.0%
E. coli FQS; MIC 2 μg/ml
  Cumulative % Inhibition at MIC: 96.6%
E. coli FQS; MIC 4 μg/ml
  Cumulative % Inhibition at MIC: 99.6%
E. coli FQS; MIC 8 μg/ml
  Cumulative % Inhibition at MIC: 99.9%
E. coli FQS; MIC 16 μg/ml
  Cumulative % Inhibition at MIC: 99.9%
E. coli FQS; MIC ≤0.5 μg/ml, listed as head image P00007
  Cumulative % Inhibition at MIC: 58.5%
E. coli FQS; MIC ≥32 μg/ml
  Cumulative % Inhibition at MIC: 100%
K. pneumoniae FQS; MIC 1 μg/ml
  Cumulative % Inhibition at MIC: 29.6%
K. pneumoniae FQS; MIC 2 μg/ml
  Cumulative % Inhibition at MIC: 79.3%
K. pneumoniae FQS; MIC 4 μg/ml
  Cumulative % Inhibition at MIC: 92.5%
K. pneumoniae FQS; MIC 8 μg/ml
  Cumulative % Inhibition at MIC: 95.9%
K. pneumoniae FQS; MIC 16 μg/ml
  Cumulative % Inhibition at MIC: 98.5%
K. pneumoniae FQS; MIC ≤0.5 μg/ml, listed as head image P00011
  Cumulative % Inhibition at MIC: 2.4%
K. pneumoniae FQS; MIC ≥32 μg/ml
  Cumulative % Inhibition at MIC: 100%
P. mirabilis; MIC 1 μg/ml
  Cumulative % Inhibition at MIC: 0.3%
P. mirabilis; MIC 2 μg/ml
  Cumulative % Inhibition at MIC: 1.3%
P. mirabilis; MIC 4 μg/ml
  Cumulative % Inhibition at MIC: 5.7%
P. mirabilis; MIC 8 μg/ml
  Cumulative % Inhibition at MIC: 22.9%
P. mirabilis; MIC 16 μg/ml
  Cumulative % Inhibition at MIC: 56.8%
P. mirabilis; MIC ≤0.5 μg/ml
  Cumulative % Inhibition at MIC: 0%
P. mirabilis; MIC ≥32 μg/ml
  Cumulative % Inhibition at MIC: 100%
[2]
  isolates with an MIC value <4 μg/mL: > 97%
[3]; at around MIC
  reduction of total biofilm-associated bacteria: 1-2 log units
[3]; at higher concentrations
  reduction in bioburden: 4-5 log units
[4]
  clinical efficacy and tolerability: comparable to linezolid
